According to the kinase profiling compilation of Christmann-Franck et al. (2016):

Tests used:
Test in all cases: radiometric filter-binding kinase assay, Kinase HotSpot
Conditions in all cases: compound 0.5 µM; ATP 10 µM
GSK3A (human) = GSK3A (human) (UniProt P49840)
PAK3 (human) = PAK3 (human) (UniProt O75914)
CSNK1A1 (human) = CSNK1A1 (human) (UniProt P48729)
PRKACA (human) = PRKACA (human) (UniProt P17612)
SRPK1 (human) = SRPK1 (human) (UniProt Q96SB4)
MAP3K8 (human) = MAP3K8 (human) (UniProt P41279)
ROS1 (human) = ROS1 (human) (UniProt P08922)
NUAK1 (human) = NUAK1 (human) (UniProt O60285)
ULK1 (human) = ULK1 (human) (UniProt O75385)
CDC42BPB (human) = CDC42BPB (human) (UniProt Q9Y5S2)
ACVR1 (human) = ACVR1 (human) (UniProt Q04771)
CDK5 CDK5R1 p25 (human) = CDK5 CDK5R1 p25 (human) (UniProt Q00535+Q15078)
RPS6KB2 (human) = RPS6KB2 (human) (UniProt Q9UBS0)
Sequence of RPS6KB2 (human) (Q9UBS0 whole entry, looked up): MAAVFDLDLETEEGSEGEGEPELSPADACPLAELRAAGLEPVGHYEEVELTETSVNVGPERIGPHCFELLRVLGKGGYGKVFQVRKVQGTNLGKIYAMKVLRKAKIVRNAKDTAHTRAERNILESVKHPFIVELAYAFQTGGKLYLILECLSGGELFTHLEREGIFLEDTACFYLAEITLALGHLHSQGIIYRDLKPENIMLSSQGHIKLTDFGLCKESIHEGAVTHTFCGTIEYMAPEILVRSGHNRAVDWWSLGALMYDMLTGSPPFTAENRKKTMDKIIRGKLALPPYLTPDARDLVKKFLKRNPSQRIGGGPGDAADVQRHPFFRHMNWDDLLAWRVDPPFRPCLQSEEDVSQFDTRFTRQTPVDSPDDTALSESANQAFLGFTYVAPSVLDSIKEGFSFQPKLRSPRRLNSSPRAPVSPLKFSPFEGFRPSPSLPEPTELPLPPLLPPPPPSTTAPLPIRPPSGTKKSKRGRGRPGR

PIM3 (human) = PIM3 (human) (UniProt Q86V86)
MYLK2 (human) = MYLK2 (human) (UniProt Q9H1R3)
PTK2 (human) = PTK2 (human) (UniProt Q05397)
RPS6KA6 KD1 KD2 (human) = RPS6KA6 KD1 KD2 (human) (UniProt Q9UK32)
CSNK1E (human) = CSNK1E (human) (UniProt P49674)
CAMK2G (human) = CAMK2G (human) (UniProt Q13555)
CSNK1G3 (human) = CSNK1G3 (human) (UniProt Q9Y6M4)
MAP3K3 (human) = MAP3K3 (human) (UniProt Q99759)
BRSK1 (human) = BRSK1 (human) (UniProt Q8TDC3)
MKNK2 (human) = MKNK2 (human) (UniProt Q9HBH9)
RIPK2 (human) = RIPK2 (human) (UniProt O43353)
AURKC (human) = AURKC (human) (UniProt Q9UQB9)
EPHA1 (human) = EPHA1 (human) (UniProt P21709)
DYRK4 (human) = DYRK4 (human) (UniProt Q9NR20)
CDK2 CCNA2 (human) = CDK2 CCNA2 (human) (UniProt P24941+P20248)
ERBB4 (human) = ERBB4 (human) (UniProt Q15303)
MYLK (human) = MYLK (human) (UniProt Q15746)
Sequence of MYLK (human) (Q15746 whole entry, looked up): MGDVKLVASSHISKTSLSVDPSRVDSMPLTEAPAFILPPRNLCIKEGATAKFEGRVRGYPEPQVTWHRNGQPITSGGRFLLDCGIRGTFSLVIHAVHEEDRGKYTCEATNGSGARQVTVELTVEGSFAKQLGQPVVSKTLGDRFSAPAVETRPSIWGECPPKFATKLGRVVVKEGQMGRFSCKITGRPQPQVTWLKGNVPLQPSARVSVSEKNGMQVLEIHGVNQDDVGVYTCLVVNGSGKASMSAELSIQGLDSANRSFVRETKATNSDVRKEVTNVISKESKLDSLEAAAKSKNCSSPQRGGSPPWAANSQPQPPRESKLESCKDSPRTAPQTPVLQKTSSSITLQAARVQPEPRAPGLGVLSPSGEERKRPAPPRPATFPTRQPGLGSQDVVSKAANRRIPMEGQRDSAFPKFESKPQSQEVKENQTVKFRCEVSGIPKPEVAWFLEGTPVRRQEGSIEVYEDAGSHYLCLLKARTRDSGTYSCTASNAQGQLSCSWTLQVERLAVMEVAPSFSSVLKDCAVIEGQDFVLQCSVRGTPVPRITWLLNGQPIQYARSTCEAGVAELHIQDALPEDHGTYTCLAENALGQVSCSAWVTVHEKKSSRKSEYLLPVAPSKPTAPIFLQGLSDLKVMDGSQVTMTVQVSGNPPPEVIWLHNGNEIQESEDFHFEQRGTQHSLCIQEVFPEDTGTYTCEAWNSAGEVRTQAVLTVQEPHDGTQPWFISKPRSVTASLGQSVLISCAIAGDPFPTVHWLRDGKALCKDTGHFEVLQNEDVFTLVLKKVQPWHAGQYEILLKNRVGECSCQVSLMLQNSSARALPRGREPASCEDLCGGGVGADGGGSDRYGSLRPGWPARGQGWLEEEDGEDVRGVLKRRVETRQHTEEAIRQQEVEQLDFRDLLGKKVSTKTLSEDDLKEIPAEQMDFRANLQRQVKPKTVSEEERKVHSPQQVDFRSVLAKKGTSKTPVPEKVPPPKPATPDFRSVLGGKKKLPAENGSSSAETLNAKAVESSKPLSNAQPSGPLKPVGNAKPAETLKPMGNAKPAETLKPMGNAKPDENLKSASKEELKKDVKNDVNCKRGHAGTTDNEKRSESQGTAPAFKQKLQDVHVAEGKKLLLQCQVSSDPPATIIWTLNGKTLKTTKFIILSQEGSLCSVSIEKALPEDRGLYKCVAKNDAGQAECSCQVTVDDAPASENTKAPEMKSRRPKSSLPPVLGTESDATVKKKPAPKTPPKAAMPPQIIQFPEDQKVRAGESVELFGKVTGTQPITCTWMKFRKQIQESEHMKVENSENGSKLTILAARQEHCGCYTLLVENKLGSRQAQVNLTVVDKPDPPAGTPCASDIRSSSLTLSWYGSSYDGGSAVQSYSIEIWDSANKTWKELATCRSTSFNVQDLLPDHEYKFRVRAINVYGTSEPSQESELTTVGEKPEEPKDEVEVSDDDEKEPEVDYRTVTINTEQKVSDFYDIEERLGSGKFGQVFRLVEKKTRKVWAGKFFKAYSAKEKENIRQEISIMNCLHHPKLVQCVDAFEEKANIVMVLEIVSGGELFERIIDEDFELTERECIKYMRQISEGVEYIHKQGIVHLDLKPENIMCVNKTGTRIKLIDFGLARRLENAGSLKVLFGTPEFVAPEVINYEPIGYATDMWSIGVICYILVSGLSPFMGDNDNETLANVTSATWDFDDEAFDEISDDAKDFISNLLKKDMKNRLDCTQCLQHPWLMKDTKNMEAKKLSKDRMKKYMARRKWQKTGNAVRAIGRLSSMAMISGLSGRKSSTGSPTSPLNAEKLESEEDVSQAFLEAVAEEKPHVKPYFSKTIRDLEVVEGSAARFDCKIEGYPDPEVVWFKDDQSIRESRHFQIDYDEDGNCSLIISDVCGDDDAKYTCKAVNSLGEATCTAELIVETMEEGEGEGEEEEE

TEC (human) = TEC (human) (UniProt P42680)
DMPK (human) = DMPK (human) (UniProt Q09013)
ADRBK1 (human) = ADRBK1 (human) (UniProt P25098)
CLK4 (human) = CLK4 (human) (UniProt Q9HAZ1)
AURKA (human) = AURKA (human) (UniProt O14965)
FGFR4 (human) = FGFR4 (human) (UniProt P22455)
RAF1 (human) = RAF1 (human) (UniProt P04049)
Sequence of RAF1 (human) (P04049 whole entry, looked up): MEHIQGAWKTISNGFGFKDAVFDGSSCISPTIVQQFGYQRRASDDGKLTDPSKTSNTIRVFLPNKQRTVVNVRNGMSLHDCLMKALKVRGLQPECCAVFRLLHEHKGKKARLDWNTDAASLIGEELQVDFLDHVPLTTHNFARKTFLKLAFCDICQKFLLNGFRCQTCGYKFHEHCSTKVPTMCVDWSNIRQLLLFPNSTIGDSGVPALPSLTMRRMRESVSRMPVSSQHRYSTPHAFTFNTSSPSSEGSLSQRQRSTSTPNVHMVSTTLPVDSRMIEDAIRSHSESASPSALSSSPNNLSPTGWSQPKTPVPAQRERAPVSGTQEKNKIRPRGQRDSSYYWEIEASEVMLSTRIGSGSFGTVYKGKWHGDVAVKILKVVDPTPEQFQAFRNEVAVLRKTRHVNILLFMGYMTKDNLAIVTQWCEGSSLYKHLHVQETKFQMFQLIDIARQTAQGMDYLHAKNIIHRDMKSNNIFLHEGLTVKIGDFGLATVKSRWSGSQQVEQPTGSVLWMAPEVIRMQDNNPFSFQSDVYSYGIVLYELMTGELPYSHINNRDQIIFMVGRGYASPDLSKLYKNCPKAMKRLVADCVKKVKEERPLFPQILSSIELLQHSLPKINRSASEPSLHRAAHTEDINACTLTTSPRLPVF

YES1 (human) = YES1 (human) (UniProt P07947)
RPS6KA5 KD2 (human) = RPS6KA5 KD2 (human) (UniProt O75582)
Sequence of RPS6KA5 KD2 (human) (O75582 whole entry, looked up): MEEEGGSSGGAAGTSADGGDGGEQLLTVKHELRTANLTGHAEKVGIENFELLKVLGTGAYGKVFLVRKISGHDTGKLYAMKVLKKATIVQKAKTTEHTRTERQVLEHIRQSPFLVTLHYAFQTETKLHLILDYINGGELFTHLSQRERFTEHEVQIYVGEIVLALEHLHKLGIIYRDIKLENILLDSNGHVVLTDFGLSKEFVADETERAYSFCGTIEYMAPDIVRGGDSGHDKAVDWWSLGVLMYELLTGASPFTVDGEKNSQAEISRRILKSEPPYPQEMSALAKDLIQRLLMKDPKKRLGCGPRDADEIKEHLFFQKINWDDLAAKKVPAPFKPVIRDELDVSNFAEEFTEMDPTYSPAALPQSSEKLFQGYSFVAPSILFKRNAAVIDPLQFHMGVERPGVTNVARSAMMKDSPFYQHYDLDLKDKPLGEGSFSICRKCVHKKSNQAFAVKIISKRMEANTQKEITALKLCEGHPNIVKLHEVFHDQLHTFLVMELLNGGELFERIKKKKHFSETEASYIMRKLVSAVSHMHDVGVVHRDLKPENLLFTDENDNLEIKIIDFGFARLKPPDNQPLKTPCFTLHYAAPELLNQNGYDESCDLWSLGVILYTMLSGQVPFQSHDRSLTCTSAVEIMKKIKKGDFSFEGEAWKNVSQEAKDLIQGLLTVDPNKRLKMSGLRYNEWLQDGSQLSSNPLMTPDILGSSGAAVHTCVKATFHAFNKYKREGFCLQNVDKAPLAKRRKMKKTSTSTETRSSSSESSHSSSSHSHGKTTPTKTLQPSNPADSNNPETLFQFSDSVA

TGFBR1 (human) = TGFBR1 (human) (UniProt P36897)
Sequence of TGFBR1 (human) (P36897 whole entry, looked up): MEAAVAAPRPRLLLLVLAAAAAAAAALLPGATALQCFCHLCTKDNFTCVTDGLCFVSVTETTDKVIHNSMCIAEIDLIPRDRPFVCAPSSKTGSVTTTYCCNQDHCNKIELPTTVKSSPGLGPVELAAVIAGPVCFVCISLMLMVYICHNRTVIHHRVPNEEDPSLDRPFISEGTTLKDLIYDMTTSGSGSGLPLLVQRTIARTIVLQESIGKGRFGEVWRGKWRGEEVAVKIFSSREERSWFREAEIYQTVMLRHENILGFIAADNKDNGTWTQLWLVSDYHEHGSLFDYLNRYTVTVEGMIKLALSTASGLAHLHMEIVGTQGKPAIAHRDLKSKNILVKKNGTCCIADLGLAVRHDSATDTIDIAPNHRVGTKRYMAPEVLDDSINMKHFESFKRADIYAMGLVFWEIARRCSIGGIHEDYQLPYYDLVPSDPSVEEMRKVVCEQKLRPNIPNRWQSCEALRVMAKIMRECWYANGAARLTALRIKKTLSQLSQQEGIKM

FGFR1 (human) = FGFR1 (human) (UniProt P11362)
DAPK3 (human) = DAPK3 (human) (UniProt O43293)

Sequence of CSNK1A1 (human) (P48729 whole entry, looked up): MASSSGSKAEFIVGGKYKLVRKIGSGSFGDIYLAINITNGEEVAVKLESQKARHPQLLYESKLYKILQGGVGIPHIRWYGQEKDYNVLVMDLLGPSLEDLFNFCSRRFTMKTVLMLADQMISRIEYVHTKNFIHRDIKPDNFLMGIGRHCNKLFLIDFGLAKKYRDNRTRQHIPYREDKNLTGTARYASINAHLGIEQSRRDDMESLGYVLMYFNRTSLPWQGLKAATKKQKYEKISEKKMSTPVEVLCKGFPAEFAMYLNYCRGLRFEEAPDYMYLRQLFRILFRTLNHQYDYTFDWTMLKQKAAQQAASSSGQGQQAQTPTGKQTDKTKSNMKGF

N#Cc1c[nH]c2c[nH]/c(=N\Cc3cccnc3)cc2/c1=N\c1ccc(F)c(Cl)c1
residual activity (GSK3A (human)): 88.5%
residual activity (PAK3 (human)): 99.2%
residual activity (CSNK1A1 (human)): 101%
residual activity (PRKACA (human)): 92.2%
residual activity (SRPK1 (human)): 102%
residual activity (MAP3K8 (human)): 79.1%
residual activity (ROS1 (human)): 98.3%
residual activity (NUAK1 (human)): 103%
residual activity (ULK1 (human)): 76.1%
residual activity (CDC42BPB (human)): 124%
residual activity (ACVR1 (human)): 95.6%
residual activity (CDK5 CDK5R1 p25 (human)): 78.3%
residual activity (RPS6KB2 (human)): 99.5%
residual activity (PIM3 (human)): 85%
residual activity (MYLK2 (human)): 96.2%
residual activity (PTK2 (human)): 99.6%
residual activity (RPS6KA6 KD1 KD2 (human)): 104%
residual activity (CSNK1E (human)): 81.8%
residual activity (CAMK2G (human)): 91.2%
residual activity (CSNK1G3 (human)): 103%
residual activity (MAP3K3 (human)): 75%
residual activity (BRSK1 (human)): 94.5%
residual activity (MKNK2 (human)): 79.3%
residual activity (RIPK2 (human)): 85.3%
residual activity (AURKC (human)): 91.8%
residual activity (EPHA1 (human)): 94.5%
residual activity (DYRK4 (human)): 84.4%
residual activity (CDK2 CCNA2 (human)): 75.1%
residual activity (ERBB4 (human)): 72.6%
residual activity (MYLK (human)): 105%
residual activity (TEC (human)): 118%
residual activity (DMPK (human)): 104%
residual activity (ADRBK1 (human)): 95.7%
residual activity (CLK4 (human)): 63.3%
residual activity (AURKA (human)): 98.1%
residual activity (FGFR4 (human)): 92.6%
residual activity (RAF1 (human)): 90.9%
residual activity (YES1 (human)): 93.6%
residual activity (RPS6KA5 KD2 (human)): 102%
residual activity (TGFBR1 (human)): 99.6%
residual activity (FGFR1 (human)): 83.4%
residual activity (DAPK3 (human)): 101%

Cc1cccc(-c2nc(C(C)(C)C)[nH]c2-c2ccc3c(c2)OCO3)n1
residual activity (GSK3A (human)): 93%
residual activity (PAK3 (human)): 95.9%
residual activity (CSNK1A1 (human)): 96.5%
residual activity (PRKACA (human)): 102%
residual activity (SRPK1 (human)): 96.5%
residual activity (MAP3K8 (human)): 94.5%
residual activity (ROS1 (human)): 101%
residual activity (NUAK1 (human)): 97.3%
residual activity (ULK1 (human)): 82.7%
residual activity (CDC42BPB (human)): 102%
residual activity (ACVR1 (human)): 96.4%
residual activity (CDK5 CDK5R1 p25 (human)): 90.1%
residual activity (RPS6KB2 (human)): 102%
residual activity (PIM3 (human)): 106%
residual activity (MYLK2 (human)): 99.2%
residual activity (PTK2 (human)): 98.1%
residual activity (RPS6KA6 KD1 KD2 (human)): 107%
residual activity (CSNK1E (human)): 71.5%
residual activity (CAMK2G (human)): 85.5%
residual activity (CSNK1G3 (human)): 102%
residual activity (MAP3K3 (human)): 120%
residual activity (BRSK1 (human)): 101%
residual activity (MKNK2 (human)): 87.8%
residual activity (RIPK2 (human)): 79%
residual activity (AURKC (human)): 91.4%
residual activity (EPHA1 (human)): 124%
residual activity (DYRK4 (human)): 89.7%
residual activity (CDK2 CCNA2 (human)): 117%
residual activity (ERBB4 (human)): 83.1%
residual activity (MYLK (human)): 105%
residual activity (TEC (human)): 123%
residual activity (DMPK (human)): 102%
residual activity (ADRBK1 (human)): 105%
residual activity (CLK4 (human)): 95.8%
residual activity (AURKA (human)): 93.4%
residual activity (FGFR4 (human)): 73.8%
residual activity (RAF1 (human)): 86.2%
residual activity (YES1 (human)): 97%
residual activity (RPS6KA5 KD2 (human)): 97.5%
residual activity (TGFBR1 (human)): 35.8%
residual activity (FGFR1 (human)): 90.8%
residual activity (DAPK3 (human)): 97%
